Target: T1, SIRT1 (Homo sapiens, UniProt Q96EB6)
T1 sequence (Q96EB6 1-747): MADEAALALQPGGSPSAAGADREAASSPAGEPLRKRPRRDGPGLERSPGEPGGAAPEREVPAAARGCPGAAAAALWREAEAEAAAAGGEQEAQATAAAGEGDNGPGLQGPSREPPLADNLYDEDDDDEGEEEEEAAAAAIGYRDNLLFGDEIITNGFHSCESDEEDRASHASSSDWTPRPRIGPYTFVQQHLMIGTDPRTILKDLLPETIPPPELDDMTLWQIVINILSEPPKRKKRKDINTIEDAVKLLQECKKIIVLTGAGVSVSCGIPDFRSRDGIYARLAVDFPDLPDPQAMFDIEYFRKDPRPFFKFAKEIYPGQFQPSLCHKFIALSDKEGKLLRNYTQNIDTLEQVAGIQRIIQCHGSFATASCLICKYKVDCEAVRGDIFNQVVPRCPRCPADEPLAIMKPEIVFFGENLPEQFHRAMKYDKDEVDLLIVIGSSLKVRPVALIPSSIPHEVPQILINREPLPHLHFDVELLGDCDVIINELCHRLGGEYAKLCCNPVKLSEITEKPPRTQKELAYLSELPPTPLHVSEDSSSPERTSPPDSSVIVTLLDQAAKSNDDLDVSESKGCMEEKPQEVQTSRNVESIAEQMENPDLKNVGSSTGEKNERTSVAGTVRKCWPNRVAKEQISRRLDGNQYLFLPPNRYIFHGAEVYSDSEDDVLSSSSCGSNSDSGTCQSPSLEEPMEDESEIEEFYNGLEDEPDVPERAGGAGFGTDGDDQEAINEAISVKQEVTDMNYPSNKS
Experiment: Mass spectrometry based SIRT1 deacetylation assay (activation)
Assay type: biochemical
Conditions: 10 nM SIRT1, 0.5 μM peptide substrate, 120 μM βNAD+, 25 min at 25° C.
Summary of the method: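 Activation reported as EC1.5, the compound concentration producing 150% of DMSO-control deacetylation, plus maximum fold activation. Readout is mass-spectrometric ratio of deacetylated to acetylated p53-based peptide (0.5 μM) after 25 min, 25 °C, with 120 μM βNAD+ and 10 nM His-tagged human SIRT1, pH 8.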

SMILES	% Fold Act. (percent maximum fold activation)	EC1.5 (concentration of test compound that results in 150% activation of SIRT1)
O=C(Nc1ccccn1)c1cccc2ncc(-c3cccc(C(F)(F)F)c3)nc12 [Compound 129]	B (Fold Activation <200%)	A (EC1.5<1.0 uM)
O=C(Nc1ccncn1)c1cccc2ncc(-c3cccc(C(F)(F)F)c3)nc12 [Compound 130]	B (Fold Activation <200%)	A (EC1.5<1.0 uM)
FC(F)(F)c1cccc(-c2ccc3cccc(NCc4cccnc4)c3n2)c1 [Compound 135]	–	C (EC1.5>25 uM)
FC(F)(F)c1cccc(-c2ccc3cccc(NCc4ccccn4)c3n2)c1 [Compound 136]	–	C (EC1.5>25 uM)
O=C(Nc1cccc2ccc(-c3cccnc3)nc12)c1cnccn1 [Compound 142]	B (Fold Activation <200%)	A (EC1.5<1.0 uM)
FC(F)(F)c1cccc(-c2ccc3cccc(CNC4CCOCC4)c3n2)c1 [Compound 144]	–	C (EC1.5>25 uM)
c1cncc(CNc2cccc3ccc(-c4cccnc4)nc23)c1 [Compound 145]	–	C (EC1.5>25 uM)
c1cncc(CNc2cccc3ccc(-c4ccncc4)nc23)c1 [Compound 146]	–	C (EC1.5>25 uM)
O=C(Nc1cccc2ccc(-c3cc(F)cc(C(F)(F)F)c3)nc12)c1ccccc1 [Compound 153]	–	C (EC1.5>25 uM)
O=C(Nc1cccc2ccc(-c3ccncc3)nc12)c1cnccn1 [Compound 155]	–	C (EC1.5>25 uM)
O=C(Nc1cccc2ccc(-c3cc(F)cc(C(F)(F)F)c3)nc12)c1cnccn1 [Compound 156]	–	C (EC1.5>25 uM)
O=C(Nc1cccc2ccc(-c3cc(F)cc(C(F)(F)F)c3)nc12)c1ccccn1 [Compound 159]	–	C (EC1.5>25 uM)
O=C(Nc1cccc2ccc(-c3cc(F)cc(C(F)(F)F)c3)nc12)c1ccncc1 [Compound 160]	–	C (EC1.5>25 uM)
O=C(Nc1cccc2ccc(-c3ccc(F)c(C(F)(F)F)c3)nc12)c1ccncc1 [Compound 161]	–	C (EC1.5>25 uM)
FC(F)(F)c1ccccc1-c1ccc2cccc(NCc3cccnc3)c2n1 [Compound 162]	–	C (EC1.5>25 uM)
CS(=O)(=O)c1cccc(-c2ccc3cccc(NCc4cccnc4)c3n2)c1 [Compound 163]	–	C (EC1.5>25 uM)
c1cncc(CNc2cccc3ccc(-c4ccc5c(c4)OCO5)nc23)c1 [Compound 164]	–	C (EC1.5>25 uM)
Fc1c(-c2ccc3cccc(NCc4cccnc4)c3n2)cccc1C(F)(F)F [Compound 165]	–	C (EC1.5>25 uM)
Fc1ccc(-c2ccc3cccc(NCc4cccnc4)c3n2)cc1C(F)(F)F [Compound 166]	–	C (EC1.5>25 uM)
Fc1ccc(C(F)(F)F)cc1-c1ccc2cccc(NCc3cccnc3)c2n1 [Compound 167]	–	C (EC1.5>25 uM)
Fc1cc(-c2ccc3cccc(NCc4cccnc4)c3n2)cc(C(F)(F)F)c1 [Compound 168]	–	C (EC1.5>25 uM)
O=C(Nc1cccc2ccc(-c3cc(F)cc(C(F)(F)F)c3)nc12)c1cscn1 [Compound 169]	–	C (EC1.5>25 uM)
FC(F)(F)c1ccc(-c2ccc3cccc(NCc4cccnc4)c3n2)cc1 [Compound 171]	–	C (EC1.5>25 uM)
c1cncc(CNc2cccc3ccc(-c4cccc(N5CCOCC5)c4)nc23)c1 [Compound 172]	–	C (EC1.5>25 uM)
O=C(Nc1cccc2ccc(-c3ccccc3O)nc12)c1cscn1 [Compound 174]	A (Fold activation >200%)	B (EC1.5 1-25 uM)
O=C(Nc1cccc2ccc(-c3ccccc3OCCN3CCOCC3)nc12)c1cscn1 [Compound 175]	A (Fold activation >200%)	B (EC1.5 1-25 uM)

Next, values leading:

% Fold Act. (percent maximum fold activation)	EC1.5 (concentration of test compound that results in 150% activation of SIRT1)	SMILES
A (Fold activation >200%)	A (EC1.5<1.0 uM)	O=C(Nc1nccs1)c1cccc2ccc(-c3cccc(OC4CCNCC4)c3)nc12 [Compound 131]
A (Fold activation >200%)	A (EC1.5<1.0 uM)	O=C(Nc1cccnc1)c1cccc2ccc(-c3cccc(OC4CCNCC4)c3)nc12 [Compound 132]
A (Fold activation >200%)	A (EC1.5<1.0 uM)	O=C(Nc1ccncn1)c1cccc2ccc(-c3cccc(OC4CCNCC4)c3)nc12 [Compound 133]
A (Fold activation >200%)	A (EC1.5<1.0 uM)	Cc1cnc(NC(=O)c2cccc3ccc(-c4cccc(OC5CCNCC5)c4)nc23)s1 [Compound 134]
–	C (EC1.5>25 uM)	FC(F)(F)c1cccc(-c2ccc3cccc(NCc4nccs4)c3n2)c1 [Compound 137]
–	C (EC1.5>25 uM)	FC(F)(F)c1cccc(-c2ccc3cccc(NCC4CCCC4)c3n2)c1 [Compound 138]
–	C (EC1.5>25 uM)	FC(F)(F)Oc1cccc(-c2ccc3cccc(NCc4cccnc4)c3n2)c1 [Compound 139]
–	C (EC1.5>25 uM)	FC(F)(F)Oc1cccc(-c2ccc3cccc(NCc4nccs4)c3n2)c1 [Compound 140]
–	C (EC1.5>25 uM)	FC(F)(F)Oc1cccc(-c2ccc3cccc(NCC4CCCC4)c3n2)c1 [Compound 141]
–	C (EC1.5>25 uM)	FC(F)(F)c1cccc(-c2ccc3cccc(CNC4CCCC4)c3n2)c1 [Compound 143]
A (Fold activation >200%)	A (EC1.5<1.0 uM)	O=C(Nc1nc(CN2CCCC2)cs1)c1cccc2ccc(-c3cccc(C(F)(F)F)c3)nc12 [Compound 147]
A (Fold activation >200%)	A (EC1.5<1.0 uM)	O=C(Nc1nc(CN2CCCC2)cs1)c1cccc2ccc(-c3cccc(OC(F)(F)F)c3)nc12 [Compound 148]
A (Fold activation >200%)	A (EC1.5<1.0 uM)	O=C(Nc1ccc(OCC(O)CO)cc1)c1cccc2ccc(-c3cccc(C(F)(F)F)c3)nc12 (stereo not drawn) [Compound 149]
A (Fold activation >200%)	A (EC1.5<1.0 uM)	O=C(Nc1ccc(OCC(O)CO)cc1)c1cccc2ccc(-c3cccc(OC(F)(F)F)c3)nc12 (stereo not drawn) [Compound 150]
A (Fold activation >200%)	A (EC1.5<1.0 uM)	O=C(Nc1cccc(OCC(O)CO)c1)c1cccc2ccc(-c3cccc(C(F)(F)F)c3)nc12 (stereo not drawn) [Compound 151]
A (Fold activation >200%)	A (EC1.5<1.0 uM)	O=C(Nc1cccc(OCC(O)CO)c1)c1cccc2ccc(-c3cccc(OC(F)(F)F)c3)nc12 (stereo not drawn) [Compound 152]
B (Fold Activation <200%)	A (EC1.5<1.0 uM)	O=C(Nc1cccc2ccc(-c3ccc(F)c(C(F)(F)F)c3)nc12)c1ccccn1 [Compound 154]
–	C (EC1.5>25 uM)	O=C(Nc1cccc2ccc(-c3ccc(F)c(C(F)(F)F)c3)nc12)c1cnccn1 [Compound 157]
–	C (EC1.5>25 uM)	O=C(Nc1cccc2ccc(-c3ccc(F)c(C(F)(F)F)c3)nc12)c1cscn1 [Compound 158]
–	C (EC1.5>25 uM)	O=C(Nc1cccc2ccc(-c3ccc(F)c(C(F)(F)F)c3)nc12)c1ccccc1 [Compound 170]
–	C (EC1.5>25 uM)	c1cncc(CNc2cccc3ccc(-c4cccc(N5CCCC5)c4)nc23)c1 [Compound 173]

Reference: patent US8685970B2, “Quinolines and related analogs as sirtuin modulators” (GlaxoSmithKline, LLC, priority 2008, dated 2014)
